Data from PubChem BioAssay (NCI).
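A five-concentration, 48-hour dose response in 96-well plates underlies each endpoint, interpolated linearly between surrounding concentrations. GI50 = concentration required for 50% inhibition of growth. TGI denotes the concentration required for complete inhibition of growth.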

Assays:
Assay in all cases: growth of human tumour cells (NCI), 48 h
SF-268 CNS = test system: SF-268 CNS
HT29 colon = test system: HT29 colon
NCI-H522 lung = test system: NCI-H522 lung
KM12 colon = test system: KM12 colon
HL-60(TB) leukemia = test system: HL-60(TB) leukemia
MDA-MB-231 breast = test system: MDA-MB-231 breast
BT-549 breast = test system: BT-549 breast
TK-10 renal = test system: TK-10 renal
M14 melanoma = test system: M14 melanoma
SK-MEL-28 melanoma = test system: SK-MEL-28 melanoma
RPMI-8226 leukemia = test system: RPMI-8226 leukemia
CCRF-CEM leukemia = test system: CCRF-CEM leukemia
HCC-2998 colon = test system: HCC-2998 colon
LOX IMVI melanoma = test system: LOX IMVI melanoma
DU-145 prostate = test system: DU-145 prostate
U251 CNS = test system: U251 CNS
PC-3 prostate = test system: PC-3 prostate
MCF7 breast = test system: MCF7 breast
MALME-3M melanoma = test system: MALME-3M melanoma
HOP-62 NSCLC = test system: HOP-62 NSCLC
NCI-H226 lung = test system: NCI-H226 lung
MDA-MB-468 breast = test system: MDA-MB-468 breast
UACC-257 melanoma = test system: UACC-257 melanoma
HOP-92 NSCLC = test system: HOP-92 NSCLC
COLO 205 colon = test system: COLO 205 colon
MDA-MB-435 = test system: MDA-MB-435
SF-539 CNS = test system: SF-539 CNS
T-47D breast = test system: T-47D breast
SN12C renal = test system: SN12C renal
SK-OV-3 ovarian = test system: SK-OV-3 ovarian
RXF 393 renal = test system: RXF 393 renal
UO-31 renal = test system: UO-31 renal
CAKI-1 renal = test system: CAKI-1 renal
NCI-H23 lung = test system: NCI-H23 lung
SNB-19 CNS = test system: SNB-19 CNS
OVCAR-5 ovarian = test system: OVCAR-5 ovarian
SW-620 colon = test system: SW-620 colon
MOLT-4 leukemia = test system: MOLT-4 leukemia
NCI-H460 lung = test system: NCI-H460 lung
IGROV1 ovarian = test system: IGROV1 ovarian
786-0 renal = test system: 786-0 renal
HCT-15 colon = test system: HCT-15 colon
K-562 leukemia = test system: K-562 leukemia
OVCAR-4 ovarian = test system: OVCAR-4 ovarian
SK-MEL-2 melanoma = test system: SK-MEL-2 melanoma
OVCAR-3 ovarian = test system: OVCAR-3 ovarian
HS 578T breast = test system: HS 578T breast
SF-295 CNS = test system: SF-295 CNS
SK-MEL-5 melanoma = test system: SK-MEL-5 melanoma
EKVX NSCLC = test system: EKVX NSCLC
A498 renal = test system: A498 renal
SNB-75 CNS = test system: SNB-75 CNS
ACHN renal = test system: ACHN renal
SR leukemia = test system: SR leukemia
HCT-116 colon = test system: HCT-116 colon
OVCAR-8 ovarian = test system: OVCAR-8 ovarian
UACC-62 melanoma = test system: UACC-62 melanoma
A549 NSCLC = test system: A549 NSCLC

COc1ccc([C@H]2C(C(=O)c3ccc(Cl)cc3)C3(N[C@@H]2c2ccccc2)C(=O)Nc2ccc(Br)cc23)cc1 (stereo partly specified) was tested. Which GI50 (SF-268 CNS) did it give?
The GI50 was 14.4 µM.

What about the TGI (SF-268 CNS) of the same compound?
Its TGI is 49.7 µM.

And the GI50 (HT29 colon)?
The GI50 was 9.03 µM.

What about the TGI (HT29 colon) of the same compound?
The TGI was 17.1 µM.

And the GI50 (NCI-H522 lung)?
Its GI50 is 8.97 µM.

What about the TGI (NCI-H522 lung) of the same compound?
Its TGI is 20.8 µM.

What about the GI50 (KM12 colon) of the same compound?
Its GI50 is 11.5 µM.

And the TGI (KM12 colon)?
Its TGI is 25.5 µM.

What about the GI50 (HL-60(TB) leukemia) of the same compound?
The GI50 was 11.3 µM.

And the TGI (HL-60(TB) leukemia)?
The TGI was 29.8 µM.

And the GI50 (MDA-MB-231 breast)?
The GI50 was 8.88 µM.

And the TGI (MDA-MB-231 breast)?
The TGI was 16.5 µM.

And the GI50 (BT-549 breast)?
The GI50 was 8.66 µM.

What about the TGI (BT-549 breast) of the same compound?
Its TGI is 16.6 µM.

What about the GI50 (TK-10 renal) of the same compound?
The GI50 was 10.8 µM.

What about the TGI (TK-10 renal) of the same compound?
The TGI was 28.7 µM.

What about the GI50 (M14 melanoma) of the same compound?
Its GI50 is 9.18 µM.

And the TGI (M14 melanoma)?
Its TGI is 19.1 µM.

What about the GI50 (SK-MEL-28 melanoma) of the same compound?
The GI50 was 8.83 µM.

What about the TGI (SK-MEL-28 melanoma) of the same compound?
The TGI was 16.8 µM.

What about the GI50 (RPMI-8226 leukemia) of the same compound?
Its GI50 is 14.3 µM.

And the TGI (RPMI-8226 leukemia)?
Its TGI is 41 µM.

What about the GI50 (CCRF-CEM leukemia) of the same compound?
Its GI50 is 14.4 µM.

What about the TGI (CCRF-CEM leukemia) of the same compound?
Its TGI is 40.5 µM.

What about the GI50 (HCC-2998 colon) of the same compound?
Its GI50 is 8.82 µM.

What about the TGI (HCC-2998 colon) of the same compound?
Its TGI is 17.9 µM.

What about the GI50 (LOX IMVI melanoma) of the same compound?
Its GI50 is 7.86 µM.

And the TGI (LOX IMVI melanoma)?
Its TGI is 15.9 µM.

What about the GI50 (DU-145 prostate) of the same compound?
The GI50 was 13.5 µM.

What about the TGI (DU-145 prostate) of the same compound?
The TGI was 36.7 µM.

And the GI50 (U251 CNS)?
Its GI50 is 9.18 µM.

And the TGI (U251 CNS)?
Its TGI is 18 µM.

And the GI50 (PC-3 prostate)?
Its GI50 is 12.2 µM.

And the TGI (PC-3 prostate)?
Its TGI is 31.5 µM.

And the GI50 (MCF7 breast)?
Its GI50 is 11.5 µM.

What about the TGI (MCF7 breast) of the same compound?
Its TGI is 34.9 µM.

What about the GI50 (MALME-3M melanoma) of the same compound?
Its GI50 is 7.69 µM.

And the TGI (MALME-3M melanoma)?
Its TGI is 15.1 µM.

And the GI50 (HOP-62 NSCLC)?
Its GI50 is 8.59 µM.

What about the TGI (HOP-62 NSCLC) of the same compound?
The TGI was 16.5 µM.

What about the GI50 (NCI-H226 lung) of the same compound?
Its GI50 is 8.47 µM.

What about the TGI (NCI-H226 lung) of the same compound?
Its TGI is 16.4 µM.

What about the GI50 (MDA-MB-468 breast) of the same compound?
The GI50 was 10.2 µM.

And the TGI (MDA-MB-468 breast)?
The TGI was 27 µM.

What about the GI50 (UACC-257 melanoma) of the same compound?
The GI50 was 10.5 µM.

And the TGI (UACC-257 melanoma)?
Its TGI is 27.9 µM.

What about the GI50 (HOP-92 NSCLC) of the same compound?
The GI50 was 8.27 µM.

What about the TGI (HOP-92 NSCLC) of the same compound?
Its TGI is 19.7 µM.

And the GI50 (COLO 205 colon)?
The GI50 was 8.35 µM.

And the TGI (COLO 205 colon)?
The TGI was 16 µM.

What about the GI50 (MDA-MB-435) of the same compound?
Its GI50 is 10.2 µM.

What about the TGI (MDA-MB-435) of the same compound?
The TGI was 20.4 µM.

And the GI50 (SF-539 CNS)?
The GI50 was 9.47 µM.

And the TGI (SF-539 CNS)?
The TGI was 19.4 µM.

What about the GI50 (T-47D breast) of the same compound?
Its GI50 is 11.5 µM.

And the TGI (T-47D breast)?
Its TGI is 33.4 µM.

And the GI50 (SN12C renal)?
The GI50 was 8.53 µM.

And the TGI (SN12C renal)?
The TGI was 16 µM.

And the GI50 (SK-OV-3 ovarian)?
The GI50 was 12.3 µM.

What about the TGI (SK-OV-3 ovarian) of the same compound?
The TGI was 36.8 µM.

What about the GI50 (RXF 393 renal) of the same compound?
Its GI50 is 7.29 µM.

What about the TGI (RXF 393 renal) of the same compound?
The TGI was 16.2 µM.

And the GI50 (UO-31 renal)?
The GI50 was 10.7 µM.

And the TGI (UO-31 renal)?
The TGI was 29.3 µM.

And the GI50 (CAKI-1 renal)?
The GI50 was 13.1 µM.

And the TGI (CAKI-1 renal)?
The TGI was 42.4 µM.

What about the GI50 (NCI-H23 lung) of the same compound?
The GI50 was 10.2 µM.

And the TGI (NCI-H23 lung)?
Its TGI is 20.8 µM.

And the GI50 (SNB-19 CNS)?
Its GI50 is 15.1 µM.

And the TGI (SNB-19 CNS)?
The TGI was > 53.3 µM.

And the GI50 (OVCAR-5 ovarian)?
Its GI50 is 9.8 µM.

And the TGI (OVCAR-5 ovarian)?
Its TGI is 19.1 µM.

And the GI50 (SW-620 colon)?
The GI50 was 13.9 µM.

What about the TGI (SW-620 colon) of the same compound?
Its TGI is 44.8 µM.

What about the GI50 (MOLT-4 leukemia) of the same compound?
Its GI50 is 14.8 µM.

And the TGI (MOLT-4 leukemia)?
The TGI was 47.2 µM.

What about the GI50 (NCI-H460 lung) of the same compound?
Its GI50 is 10.1 µM.

What about the TGI (NCI-H460 lung) of the same compound?
The TGI was 20.9 µM.

What about the GI50 (IGROV1 ovarian) of the same compound?
The GI50 was 11 µM.

What about the TGI (IGROV1 ovarian) of the same compound?
Its TGI is 25.9 µM.

And the GI50 (786-0 renal)?
The GI50 was 12.4 µM.

What about the TGI (786-0 renal) of the same compound?
The TGI was 32.3 µM.

What about the GI50 (HCT-15 colon) of the same compound?
Its GI50 is 9.91 µM.

What about the TGI (HCT-15 colon) of the same compound?
The TGI was 20.3 µM.

And the GI50 (K-562 leukemia)?
The GI50 was 15.8 µM.

What about the TGI (K-562 leukemia) of the same compound?
Its TGI is > 53.3 µM.

What about the GI50 (OVCAR-4 ovarian) of the same compound?
Its GI50 is 13 µM.

And the TGI (OVCAR-4 ovarian)?
Its TGI is 42.4 µM.

What about the GI50 (SK-MEL-2 melanoma) of the same compound?
The GI50 was 8.37 µM.

And the TGI (SK-MEL-2 melanoma)?
The TGI was 16 µM.

And the GI50 (OVCAR-3 ovarian)?
Its GI50 is 10.5 µM.

What about the TGI (OVCAR-3 ovarian) of the same compound?
Its TGI is 23.3 µM.

What about the GI50 (HS 578T breast) of the same compound?
The GI50 was 9.96 µM.

And the TGI (HS 578T breast)?
The TGI was 26.6 µM.

What about the GI50 (SF-295 CNS) of the same compound?
Its GI50 is 9.65 µM.

And the TGI (SF-295 CNS)?
The TGI was 20.2 µM.

What about the GI50 (SK-MEL-5 melanoma) of the same compound?
Its GI50 is 8.65 µM.

And the TGI (SK-MEL-5 melanoma)?
Its TGI is 16.5 µM.

And the GI50 (EKVX NSCLC)?
Its GI50 is 12.4 µM.

And the TGI (EKVX NSCLC)?
Its TGI is 42.6 µM.

What about the GI50 (A498 renal) of the same compound?
Its GI50 is 10.5 µM.

What about the TGI (A498 renal) of the same compound?
Its TGI is 24.8 µM.

And the GI50 (SNB-75 CNS)?
The GI50 was 8.73 µM.

And the TGI (SNB-75 CNS)?
The TGI was 35.4 µM.

And the GI50 (ACHN renal)?
The GI50 was 13.4 µM.

What about the TGI (ACHN renal) of the same compound?
Its TGI is 41.6 µM.

What about the GI50 (SR leukemia) of the same compound?
Its GI50 is 12.8 µM.

And the TGI (SR leukemia)?
The TGI was 35.8 µM.

What about the GI50 (HCT-116 colon) of the same compound?
The GI50 was 9.7 µM.

What about the TGI (HCT-116 colon) of the same compound?
Its TGI is 18.5 µM.

And the GI50 (OVCAR-8 ovarian)?
Its GI50 is 9.68 µM.

And the TGI (OVCAR-8 ovarian)?
The TGI was 20.4 µM.

What about the GI50 (UACC-62 melanoma) of the same compound?
The GI50 was 8.75 µM.

And the TGI (UACC-62 melanoma)?
Its TGI is 16.7 µM.

What about the GI50 (A549 NSCLC) of the same compound?
The GI50 was 11.9 µM.

And the TGI (A549 NSCLC)?
Its TGI is 34.2 µM.
